According to ChEMBL document CHEMBL3864130, “A novel lead of P-selectin inhibitor: Discovery, synthesis, bioassays and action mechanism” (2016):
The source made the active and inactive calls. No cut-off for these calls is given here.

Experiments:
Mus musculus [1] = assay: Antithrombosis activity in ferric cholride induced ICR mouse model of thrombosis assessed as inhibition of thrombus formation at 240 umol/kg, po measured after 15 mins; type: functional, organism-based
Mus musculus [2] = assay: Antiinflammatory activity in xylene induced ICR mouse ear edema model assessed as decrease in ear swelling at 0.11 mmol/kg, po pretreated for 30 mins followed by topical administration of xylene measured after 2 hrs; type: functional, organism-based
Rattus norvegicus [3] = assay: Antithrombotic activity in Sprague-Dawley rat model of thrombosis assessed as inhibition of thrombus formation at 167 umol/kg, po measured after 30 mins; type: functional, organism-based
[4] = biological target: T1, P-selectin (Homo sapiens) (UniProt P16109); assay: Binding affinity to P-selectin (unknown origin) assessed as maximal absorbance at 340.8 nanometer at 0.18 mM by UV spectroscopy
T1 sequence (whole entry): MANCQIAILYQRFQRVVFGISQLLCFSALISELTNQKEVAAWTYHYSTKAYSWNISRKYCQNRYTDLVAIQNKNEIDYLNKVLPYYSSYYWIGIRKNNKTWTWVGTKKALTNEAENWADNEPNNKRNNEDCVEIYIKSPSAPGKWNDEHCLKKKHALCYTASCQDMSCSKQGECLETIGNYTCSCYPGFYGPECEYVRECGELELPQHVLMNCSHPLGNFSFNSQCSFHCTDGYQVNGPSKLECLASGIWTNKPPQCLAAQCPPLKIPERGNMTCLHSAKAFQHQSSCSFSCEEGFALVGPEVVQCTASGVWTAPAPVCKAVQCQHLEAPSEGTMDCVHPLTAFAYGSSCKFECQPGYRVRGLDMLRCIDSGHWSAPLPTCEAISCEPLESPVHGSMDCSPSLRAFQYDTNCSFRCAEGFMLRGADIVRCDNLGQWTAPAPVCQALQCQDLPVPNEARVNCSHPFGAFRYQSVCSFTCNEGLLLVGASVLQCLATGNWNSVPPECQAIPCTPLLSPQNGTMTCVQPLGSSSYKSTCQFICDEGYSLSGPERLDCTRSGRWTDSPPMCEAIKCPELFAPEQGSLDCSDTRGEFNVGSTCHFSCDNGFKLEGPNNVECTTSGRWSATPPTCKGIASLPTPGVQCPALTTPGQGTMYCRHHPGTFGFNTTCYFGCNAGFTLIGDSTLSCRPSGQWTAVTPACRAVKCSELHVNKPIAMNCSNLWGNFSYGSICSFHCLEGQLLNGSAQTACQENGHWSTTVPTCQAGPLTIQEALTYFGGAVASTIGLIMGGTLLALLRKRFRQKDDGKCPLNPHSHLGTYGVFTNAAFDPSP

Mus musculus [5] = assay: Decrease in serum IL8 level in xylene induced ICR mouse ear edema model at 2 nmol/kg,po pretreated for 30 mins followed by topical administration of xylene; type: functional
Mus musculus [6] = assay: Decrease in serum IL8 level in xylene induced ICR mouse ear edema model administered orally 30 mins prior to topical administration of xylene; type: functional
[7] = biological target: T1, P-selectin (Homo sapiens); assay: Binding affinity to P-selectin (unknown origin) assessed as bathochromic shift at 340.8 nanometer at 0.42 mM by UV spectroscopy
Mus musculus [8] = assay: Potency index, ratio of compound efficacy to aspirin efficacy in xylene induced ICR mouse ear edema model; type: functional
[9] = biological target: T2, P-selectin (Rattus norvegicus) (UniProt P98106); assay: (§1) Downregulation of P-selectin expression in arachidonic acid-activated Sprague-Dawley rat platelets assessed as fluorescence intensity at 200 nM pretreated for 30 mins followed by arachidonic acid addition measured after 5 mins by phycoerythrin-anti-[…] staining-based flow cytometry (reference value: 1621)
T2 sequence (whole entry): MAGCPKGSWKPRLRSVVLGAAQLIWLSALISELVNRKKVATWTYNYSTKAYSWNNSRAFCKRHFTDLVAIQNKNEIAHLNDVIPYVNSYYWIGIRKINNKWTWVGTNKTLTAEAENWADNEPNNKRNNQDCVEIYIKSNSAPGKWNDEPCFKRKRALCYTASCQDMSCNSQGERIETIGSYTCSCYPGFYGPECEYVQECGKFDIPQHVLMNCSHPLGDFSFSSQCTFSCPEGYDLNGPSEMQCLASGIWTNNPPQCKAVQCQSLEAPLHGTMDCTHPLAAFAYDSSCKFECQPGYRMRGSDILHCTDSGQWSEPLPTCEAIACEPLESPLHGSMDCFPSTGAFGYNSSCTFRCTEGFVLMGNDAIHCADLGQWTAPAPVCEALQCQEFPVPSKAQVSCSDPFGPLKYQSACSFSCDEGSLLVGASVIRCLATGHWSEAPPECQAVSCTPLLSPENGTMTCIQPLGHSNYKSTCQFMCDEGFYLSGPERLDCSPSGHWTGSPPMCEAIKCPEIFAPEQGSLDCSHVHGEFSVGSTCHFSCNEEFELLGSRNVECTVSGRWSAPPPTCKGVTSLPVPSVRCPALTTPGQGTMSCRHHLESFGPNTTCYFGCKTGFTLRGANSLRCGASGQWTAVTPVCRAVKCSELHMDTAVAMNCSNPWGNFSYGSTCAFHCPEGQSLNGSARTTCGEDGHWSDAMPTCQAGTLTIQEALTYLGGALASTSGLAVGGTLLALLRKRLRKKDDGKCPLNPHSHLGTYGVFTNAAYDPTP

Mus musculus [10] = organism: Mus musculus; assay: Potency index, ratio of compound efficacy to aspirin efficacy in ferric chloride induced ICR mouse model of thrombosis; type: functional
Mus musculus [11] = assay: Decrease in serum TNF-alpha level in xylene induced ICR mouse ear edema model administered orally 30 mins prior to topical administration of xylene; type: functional
Mus musculus [12] = assay: Antiinflammatory activity in xylene induced ICR mouse ear edema model assessed as decrease in ear swelling pretreated orally for 30 mins followed by topical administration of xylene measured after 2 hrs; type: functional
[13] = biological target: T2, P-selectin (Rattus norvegicus); assay: Downregulation of P-selectin expression in arachidonic acid-activated Sprague-Dawley rat platelets assessed as decrease in fluorescence intensity pretreated for 30 mins followed by arachidonic acid addition measured after 5 mins by phycoerythrin-anti-[…] staining-based flow cytometry
[14] = biological target: T2, P-selectin (Rattus norvegicus); assay: as §1, with “2000” for “200”
[15] = biological target: T1, P-selectin (Homo sapiens); assay: Binding affinity to P-selectin (unknown origin) assessed as maximal absorbance at 295.4 nanometer at 0.18 mM by UV spectroscopy
[16] = biological target: T2, P-selectin (Rattus norvegicus); assay: Downregulation of P-selectin expression in arachidonic acid-activated Sprague-Dawley rat platelets at 200 to 2000 nM pretreated with platelets followed by arachidonic acid addition measured after 3 mins by ELISA
Rattus norvegicus [17] = assay: Antithrombotic activity in po dosed Sprague-Dawley rat model of thrombosis assessed as inhibition of thrombus formation measured after 30 mins; type: functional
Mus musculus [18] = assay: Antithrombosis activity in ferric chloride induced ICR mouse model of thrombosis assessed as inhibition of thrombus formation at 200 nmol/kg, po measured after 15 mins; type: functional, organism-based
Rattus norvegicus [19] = organism: Rattus norvegicus; assay: Potency index, ratio of compound efficacy to aspirin efficacy for antithrombotic activity in Sprague-Dawley rat model of thrombosis; type: functional
[20] = biological target: T2, P-selectin (Rattus norvegicus); assay: Downregulation of P-selectin expression in arachidonic acid-activated Sprague-Dawley rat platelets assessed as P-selectin levels pretreated with platelets followed by arachidonic acid addition measured after 3 mins by ELISA
[21] = biological target: T1, P-selectin (Homo sapiens); assay: Binding affinity to P-selectin (unknown origin) assessed as hyperchromic effect at 340.8 nanometer at 0.42 mM by UV spectroscopy
[22] = biological target: T2, P-selectin (Rattus norvegicus); assay: Downregulation of P-selectin expression in arachidonic acid-activated Sprague-Dawley rat platelets assessed as mean fluorescence intensity at 20 nM pretreated for 30 mins followed by arachidonic acid addition measured after 5 mins by phycoerythrin-anti-[…] staining-based flow cytometry (reference value: 1621)
[23] = biological target: T1, P-selectin (Homo sapiens); assay: Binding affinity to P-selectin (unknown origin) assessed as maximal absorbance at 352 nanometer at 0.18 mM by UV spectroscopy
[24] = biological target: T1, P-selectin (Homo sapiens); assay: Binding affinity to P-selectin (unknown origin) assessed as red shift at 352 nanometer at 0.42 mM by UV spectroscopy
[25] = biological target: T1, P-selectin (Homo sapiens); assay: Binding affinity to P-selectin (unknown origin) assessed as red shift at 295.4 nanometer at 0.42 mM by UV spectroscopy

CC(=O)Oc1ccccc1C(=O)O
inhibition (Mus musculus [1]): Active | Activity (Mus musculus [2]): Active | inhibition (Rattus norvegicus [3]): Active

O=C(O)[C@H](Cc1ccccc1)NCCc1nc(CO)cc2c1[nH]c1ccccc12
Activity [4]: 0.355 | Activity (Mus musculus [5]): Active | Activity (Mus musculus [6]): Dose-dependent effect | MEC (Mus musculus [6]): 2 nmol/kg | Activity [7]: 0.6 nm | Ratio (Mus musculus [8]): 550 | Flu intensity [9]: 754 | Ratio (Mus musculus [10]): 1200 | MEC (Mus musculus [11]): 200 nmol/kg | Activity (Mus musculus [12]): Dose-dependent effect | MED (Mus musculus [12]): 20 nmol/kg | Activity [13]: Dose-dependent effect | MEC [13]: 20 nM | Flu intensity [14]: 665 | Activity [15]: 0.451 | Activity [16]: Active | MED (Rattus norvegicus [17]): 20 nmol/kg | inhibition (Rattus norvegicus [17]): Dose-dependent effect | inhibition (Mus musculus [18]): Active | Ratio (Rattus norvegicus [19]): 835 | MEC [20]: 200 nM | Activity [21]: 51.2% | Flu intensity [22]: 871 | Activity [23]: 0.339 | Activity [24]: 1.4 nm | Activity [25]: 1.4 nm
